pIC50: −log10 of the molar value.
Experiments:
EGFR = target: T1, EGFR (Homo sapiens, UniProt P00533); assay: EGF receptor ELISA in cells engineered to express human EGF-R; assay type: cell-based; conditions: 50% inhibition of PTK activity over control
T1 construct: expressed in transfected cells; host or cells: NIH 3T3/C7
Method: (§1) The cellular/catalytic assays described herein are performed in an ELISA format. The general procedure is a follows: a compound is introduced to cells expressing the test kinase, either naturally or recombinantly, for some period of time after which, if the test kinase is a receptor, a ligand known to activate the receptor's activity is added. The cells are lysed and the lysate is transferred to the wells of an ELISA plate previously coated with a specific antibody recognizing the substrate of the enzymatic phosphorylation reaction. Non-substrate components of the cell lysate are washed away and the amount of phosphorylation on the substrate is detected with an antibody specifically recognizing phosphotyrosine compared with control cells that were not contacted with a test compound.
EGF Receptor kinase activity in cells genetically engineered to express human EGF-R can be measured as described below:
The following materials and reagents are used
a. EGF Ligand: stock concentration=16.5 μM; EGF 201, TOYOBO, Co., Ltd. Japan.
b. 05-101 (UBI) (a monoclonal antibody recognizing an EGFR extracellular domain).
c. Anti-phosphotyosine antibody (anti-Ptyr) (polyclonal).
d. Detection antibody: Goat anti-rabbit lgG horse radish peroxidase conjugate, TAGO, Inc., Burlingame, Calif.
Keep solution in dark at 4 C until used.
The following protocol is used:
1. Coat ELISA plates (Corning, 96 well, Cat. #25805-96) with 05-101 antibody at 0.5 μg per well in PBS, 150 μL final volume/well, and store overnight at 4° C. Coated plates are good for up to 10 days when stored at 4° C.
2. On day of use, remove coating buffer and replace with blocking buffer (5% Carnation Instant NonFat Dry Milk in PBS). Incubate the plate, shaking, at room temperature (about 23° C. to 25° C.) for 30 minutes. Just prior to use, remove blocking buffer and wash plate 4 times with TBST buffer.
1. NIH 3T3/C7 cell line (Honegger, et al., Cell 51:199-209, 1987) can be use for this assay.
2. Choose dishes having 80-90% confluence for the experiment. Trypsinize cells and stop reaction by adding 10% CS DMEM medium. Suspend cells in DMEM medium (10% CS DMEM medium) and centrifuge once at 1000 rpm at room temperature for 5 minutes.
3. Resuspend cells in seeding medium (DMEM, 0.5% bovine serum), and count the cells using trypan blue. Viability above 90% is acceptable. Seed cells in DMEM medium (0.5% bovine serum) at a density of 10,000 cells per well, 100 μL per well, in a 96 well microtiter plate. Incubate seeded cells in 5% CO2 at 37° C. for about 40 hours.
1. Check seeded cells for contamination using an inverted microscope. Dilute drug stock (10 mg/mL in DMSO) 1:10 in DMEM medium, then transfer 5 μL to a test well for a final drug dilution of 1:200 and a final DMSO concentration of 1%. Control wells receive DMSO alone. Incubate in 5% CO2 at 37° C. for one hour.
2. Prepare EGF ligand: dilute stock EGF in DMEM so that upon transfer of 10 μL dilute EGF (1:12 dilution), 25 nM final concentration is attained.
3. Prepare fresh 10 mL HNTG* sufficient for 100 μL per well wherein HNTG* comprises: HNTG stock (2.0 mL), milli-Q H2O (7.3 mL), EDTA, 100 mM, pH 7.0 (0.5 mL), Na3VO4 0.5 M (0.1 mL) and Na4(P2O7), 0.2 M (0.1 mL).
5. After two hours incubation with drug, add prepared EGF ligand to cells, 10 μL per well, to yield a final concentration of 25 nM. Control wells receive DMEM alone. Incubate, shaking, at room temperature, for 5 minutes.
6. Remove drug, EGF, and DMEM. Wash cells twice with PBS. Transfer HNTG* to cells, 100 μL per well. Place on ice for 5 minutes. Meanwhile, remove blocking buffer from other ELISA plate and wash with TBST as described above.
7. With a pipette tip securely fitted to a micropipettor, scrape cells from plate and homogenize cell material by repeatedly aspirating and dispensing the HNTG* lysis buffer. Transfer lysate to a coated, blocked, and washed ELISA plate. Incubate shaking at room temperature for one hour.
8. Remove lysate and wash 4 times with TBST. […]

PDGFR = PDGFR (Homo sapiens, UniProt P09619); assay: PDGF-R ELISA (cellular kinase assay); assay type: cell-based; conditions: 50% inhibition of PTK activity over control
Method: as §1
All cell culture media, glutamine, and fetal bovine serum can be purchased from Gibco Life Technologies (Grand Island, N.Y.) unless otherwise specified. All cells are grown in a humid atmosphere of 90-95% air and 5-10% CO2 at 37° C. All cell lines are routinely subcultured twice a week and are negative for mycoplasma as determined by the Mycotect method (Gibco).
For ELISA assays, cells (U1242, obtained from Joseph Schlessinger, NYU) are grown to 80-90% confluency in growth medium (MEM with 10% FBS, NEAA, 1 mM NaPyr and 2 mM GLN) and seeded in 96-well tissue culture plates in 0.5% serum at 25,000 to 30,000 cells per well. After overnight incubation in 0.5% serum-containing medium, cells are changed to serum-free medium and treated with test compound for 2 hr in a 5% CO2, 37° C. incubator. Cells are then stimulated with ligand for 5-10 minute followed by lysis with HNTG (20 mM Hepes, 150 mM NaCl, 10% glycerol, 5 mM EDTA, 5 mM Na3VO4, 0.2% Triton X-100, and 2 mM NaPyr). Cell lysates (0.5 mg/well in PBS) are transferred to ELISA plates previously coated with receptor-specific antibody and which had been blocked with 5% milk in TBST (50 mM Tris-HCl pH 7.2, 150 mM NaCl and 0.1% Triton X-100) at room temperature for 30 min. Lysates are incubated with shaking for 1 hour at room temperature. The plates are washed with TBST four times and then incubated with polyclonal anti-phosphotyrosine antibody at room temperature for 30 minutes. Excess anti-phosphotyrosine antibody is removed by rinsing the plate with TBST four times. Goat anti-rabbit IgG antibody is added to the ELISA plate for 30 min at room temperature followed by rinsing with TBST four more times. ABTS (100 mM citric acid, 250 mM Na2HPO4 and 0.5 mg/mL 2,2′-azino-bis(3-ethylbenzthiazoline-6-sulfonic acid)) plus H2O2 (1.2 mL 30% H2O2 to 10 mL ABTS) is added to the ELISA plates to start color development. Absorbance at 410 nm with a reference wavelength of 630 nm is recorded about 15 to 30 min after ABTS addition.

Chain of PDGFR (P09619 33-1106): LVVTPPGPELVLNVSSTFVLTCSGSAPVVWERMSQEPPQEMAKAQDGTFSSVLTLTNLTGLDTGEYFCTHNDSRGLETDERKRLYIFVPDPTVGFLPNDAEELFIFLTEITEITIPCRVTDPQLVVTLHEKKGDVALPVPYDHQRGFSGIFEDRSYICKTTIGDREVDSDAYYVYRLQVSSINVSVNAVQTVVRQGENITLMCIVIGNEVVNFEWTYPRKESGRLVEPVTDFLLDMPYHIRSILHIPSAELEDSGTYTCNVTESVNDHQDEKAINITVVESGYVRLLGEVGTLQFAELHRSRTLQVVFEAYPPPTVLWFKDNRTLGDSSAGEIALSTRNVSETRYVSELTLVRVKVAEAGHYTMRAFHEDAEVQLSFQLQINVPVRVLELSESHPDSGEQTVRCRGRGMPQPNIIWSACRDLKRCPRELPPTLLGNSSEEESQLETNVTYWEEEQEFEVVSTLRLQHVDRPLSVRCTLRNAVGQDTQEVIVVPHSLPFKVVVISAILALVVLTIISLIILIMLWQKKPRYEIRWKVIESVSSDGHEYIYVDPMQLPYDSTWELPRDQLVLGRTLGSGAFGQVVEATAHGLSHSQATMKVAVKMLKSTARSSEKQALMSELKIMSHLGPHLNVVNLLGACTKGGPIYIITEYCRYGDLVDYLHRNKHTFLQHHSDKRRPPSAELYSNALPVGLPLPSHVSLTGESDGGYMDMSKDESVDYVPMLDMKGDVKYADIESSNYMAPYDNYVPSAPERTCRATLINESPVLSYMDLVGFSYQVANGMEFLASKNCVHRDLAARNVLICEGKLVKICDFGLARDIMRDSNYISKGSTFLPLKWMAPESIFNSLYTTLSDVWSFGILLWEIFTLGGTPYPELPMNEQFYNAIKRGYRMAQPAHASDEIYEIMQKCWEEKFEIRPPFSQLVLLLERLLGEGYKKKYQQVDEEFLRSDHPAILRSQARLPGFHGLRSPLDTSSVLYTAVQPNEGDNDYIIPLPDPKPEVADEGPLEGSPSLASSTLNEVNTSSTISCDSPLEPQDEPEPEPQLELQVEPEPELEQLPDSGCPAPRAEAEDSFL
T1 sequence (P00533 25-1210): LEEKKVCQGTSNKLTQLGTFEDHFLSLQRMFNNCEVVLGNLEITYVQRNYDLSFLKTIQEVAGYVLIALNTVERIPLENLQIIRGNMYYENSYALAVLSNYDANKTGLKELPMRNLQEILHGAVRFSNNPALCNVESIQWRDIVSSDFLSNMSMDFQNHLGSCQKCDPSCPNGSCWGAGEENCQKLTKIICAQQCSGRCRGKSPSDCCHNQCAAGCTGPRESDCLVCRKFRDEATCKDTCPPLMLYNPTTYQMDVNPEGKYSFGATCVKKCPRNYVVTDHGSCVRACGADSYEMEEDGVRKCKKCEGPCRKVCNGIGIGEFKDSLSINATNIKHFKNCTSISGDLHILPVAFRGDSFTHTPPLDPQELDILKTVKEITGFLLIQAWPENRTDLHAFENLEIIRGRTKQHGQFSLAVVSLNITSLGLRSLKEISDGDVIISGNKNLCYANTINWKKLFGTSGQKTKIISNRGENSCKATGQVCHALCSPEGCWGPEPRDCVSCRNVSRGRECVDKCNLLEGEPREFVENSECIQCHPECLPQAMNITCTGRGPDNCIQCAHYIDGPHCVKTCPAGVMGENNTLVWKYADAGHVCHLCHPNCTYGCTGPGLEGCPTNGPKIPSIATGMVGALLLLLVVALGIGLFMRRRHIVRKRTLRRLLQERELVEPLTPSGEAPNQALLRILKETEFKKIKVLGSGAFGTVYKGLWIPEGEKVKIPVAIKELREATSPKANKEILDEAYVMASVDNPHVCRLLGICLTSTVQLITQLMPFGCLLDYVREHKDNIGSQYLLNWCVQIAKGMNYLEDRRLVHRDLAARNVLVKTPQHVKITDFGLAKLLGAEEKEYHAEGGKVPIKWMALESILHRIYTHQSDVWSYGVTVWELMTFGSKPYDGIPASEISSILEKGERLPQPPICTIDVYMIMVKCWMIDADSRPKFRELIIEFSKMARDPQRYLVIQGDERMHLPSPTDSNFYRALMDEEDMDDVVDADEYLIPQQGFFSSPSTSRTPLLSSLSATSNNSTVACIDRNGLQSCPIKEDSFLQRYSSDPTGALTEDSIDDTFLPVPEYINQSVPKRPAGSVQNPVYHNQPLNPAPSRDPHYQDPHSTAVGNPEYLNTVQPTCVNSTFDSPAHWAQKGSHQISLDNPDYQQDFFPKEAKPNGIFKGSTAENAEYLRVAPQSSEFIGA

| SMILES | pIC50 (EGFR) | pIC50 (PDGFR) |
| --- | --- | --- |
| COC(=O)Cc1c(Cl)[nH]c(C=C2C(=O)Nc3ccccc32)c1C(=O)OC [3-(2-chloro-4-methoxycarbonyl-3-methoxycarbonylmethylpyrrol-5-methylidenyl)-2-indolinone] | < 4.30 |  |
| COC(=O)CCc1c[nH]c(C=C2C(=O)Nc3ccccc32)c1C [3-[4-(2-methoxycarbonylethyl-3-methylpyrrol-2-methylidenyl]-2-indolinone] | < 4.00 |  |
| CCOC(=O)c1[nH]c(C=C2C(=O)Nc3ccccc32)c(C(C)=O)c1C [3-(4-acetyl-2-ethoxycarbonyl-3-methylpyrrol-5-methylidenyl)-2-indolinone] | < 5.00 | < 5.00 |
| CCOC(=O)c1c[nH]c(C=C2C(=O)Nc3ccccc32)c1C [3-(4-ethoxycarbonyl-3-methylpyrrol-2-methylidenyl)-2-indolinone] | < 4.00 | < 4.00 |
| Cc1c[nH]c(C=C2C(=O)Nc3ccccc32)c1CCC(=O)O [3-[3-(2-carboxyethyl-4-methylpyrrol-2-methylidenyl]-2-indolinone] | < 4.00 |  |
| CCOC(=O)CCc1c(C(=O)OCC)[nH]c(C=C2C(=O)Nc3ccccc32)c1CC(=O)OCC [3-[2-ethoxycarbonyl-3-(2-ethoxycarbonylethyl)-4-ethoxycarbonylmethyl)pyrrol-5-methylidenyl)-2-indolinone] | < 5.00 | < 5.00 |
| COC(=O)CCc1c[nH]c(C=C2C(=O)Nc3cc(OC)c(OC)cc32)c1C [3-[4-(2-methoxycarbonylethyl)-3-methylpyrrol-2-methylidenyl]-5,6-dimethoxy-2-indolinone] | < 4.30 | 4.65 |
| CCOC(=O)c1c(C)[nH]c(C=C2C(=O)Nc3ccc(Br)cc32)c1C [3-(2,4-dimethyl-3-ethoxycarbonylpyrrol-5-methylidenyl)-5-bromo-2-indolinone] | < 4.60 |  |
| CC(=O)c1[nH]c(C=C2C(=O)Nc3ccccc32)c(C)c1C [3-(2-acetyl-3,4-dimethylpyrrol-5-methylidenyl)-2-indolinone] | < 4.00 |  |
| CCOC(=O)c1c(C)[nH]c(C=C2C(=O)Nc3ccc(NC(=O)c4ccc(C(=O)OC)cc4)cc32)c1C [3-(2,4-dimethyl-3-ethoxycarbonylpyrrol-5-methylidenyl)-5-(4-methoxycarbonylbenzamido)-2-indolinone] | < 5.00 |  |

— patent US6486185B1, “3-heteroarylidene-2-indolinone protein kinase inhibitors” (Sugen, Inc., priority 1997, dated 2002)
